Experimental data as given in patent US9062041B2 (Bayer Intellectual Property GmbH, priority 2011, dated 2015).

Key:
Type in all cases: cell-based
[1] = biological target: EP2 subtype of the human PGE2 receptor (Homo sapiens, UniProt P43116); assay: cAMP antagonism test on the human EP2 receptor (HTRF cAMP detection); settings: hEP2 receptor, read-out: Antagonism hEP2 IC50
Summary of the method: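 Read-out is a competitive HTRF for cAMP: lysate cAMP displaces cAMP-d2 from Eu cryptate-labelled antibody, and antagonism raises the 665/620 nm ratio. Compound (0.8 nM–16.5 μM) added to EP2 cells 20 min at RT before 60 min PGE2 challenge (3× stock 1.5 nM) with IBMX, followed by 20 min lysis.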

[2] = biological target: EP4 subtype of the human PGE2 receptor (Homo sapiens, UniProt P35408); assay: cAMP antagonism test on the human EP4 receptor (HTRF cAMP detection); settings: selectivity towards hEP4, IC50 measured by cAMP antagonism test
Sequence of EP4 subtype of the human PGE2 receptor (P35408 whole entry): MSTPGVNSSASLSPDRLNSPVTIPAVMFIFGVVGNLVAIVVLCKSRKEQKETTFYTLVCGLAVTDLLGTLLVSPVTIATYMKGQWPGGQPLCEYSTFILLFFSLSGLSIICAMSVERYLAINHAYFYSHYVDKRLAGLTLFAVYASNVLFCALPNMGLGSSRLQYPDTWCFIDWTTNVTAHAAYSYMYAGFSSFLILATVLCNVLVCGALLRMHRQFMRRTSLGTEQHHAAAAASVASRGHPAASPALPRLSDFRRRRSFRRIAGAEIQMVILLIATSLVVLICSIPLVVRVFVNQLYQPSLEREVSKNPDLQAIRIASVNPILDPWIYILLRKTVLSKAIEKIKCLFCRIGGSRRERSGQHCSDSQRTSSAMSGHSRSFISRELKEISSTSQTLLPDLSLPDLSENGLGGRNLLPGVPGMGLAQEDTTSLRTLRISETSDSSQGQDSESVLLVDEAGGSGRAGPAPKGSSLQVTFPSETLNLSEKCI
Summary of the method: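 Competitive HTRF cAMP read-out (cAMP-d2 vs Eu-cryptate anti-cAMP antibody, 665/620 nm ratio) on lysed human EP4 cells. Compound (0.8 nM–16.5 μM) applied 20 min at RT before 60 min PGE2 challenge (3× solution 0.3 nM, IBMX present); 20 min lysis precedes reading.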

human PGD receptor = biological target: T1, human PGD receptor (Homo sapiens, UniProt Q13258); assay: cAMP antagonism test on the human prostaglandin D receptor (HTRF cAMP detection); settings: selectivity towards hDP, IC50 measured by cAMP antagonism test
T1 sequence (Q13258 1-359): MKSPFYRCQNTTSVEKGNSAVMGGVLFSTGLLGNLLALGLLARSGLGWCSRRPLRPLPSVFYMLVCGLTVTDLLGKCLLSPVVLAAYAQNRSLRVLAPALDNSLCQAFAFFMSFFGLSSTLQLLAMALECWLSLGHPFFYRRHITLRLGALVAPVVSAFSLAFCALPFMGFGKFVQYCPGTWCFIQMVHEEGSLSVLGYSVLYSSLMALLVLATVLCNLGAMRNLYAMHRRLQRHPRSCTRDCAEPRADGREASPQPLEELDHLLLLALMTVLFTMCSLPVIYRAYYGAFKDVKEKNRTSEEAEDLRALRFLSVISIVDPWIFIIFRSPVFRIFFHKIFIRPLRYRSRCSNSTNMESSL
Summary of the method: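 HTRF competition read-out (665/620 nm ratio ×10000), where higher FRET means less cAMP, i.e. antagonism. Compounds (0.8 nM–16.5 μM) were preincubated 20 min at RT with cells and cAMP-d2, PGD2 (3× solution, 6 nM) in IBMX-containing PBS added for 30 min at RT, then cells lysed 20 min.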

Sequence of EP2 subtype of the human PGE2 receptor (P43116 whole entry): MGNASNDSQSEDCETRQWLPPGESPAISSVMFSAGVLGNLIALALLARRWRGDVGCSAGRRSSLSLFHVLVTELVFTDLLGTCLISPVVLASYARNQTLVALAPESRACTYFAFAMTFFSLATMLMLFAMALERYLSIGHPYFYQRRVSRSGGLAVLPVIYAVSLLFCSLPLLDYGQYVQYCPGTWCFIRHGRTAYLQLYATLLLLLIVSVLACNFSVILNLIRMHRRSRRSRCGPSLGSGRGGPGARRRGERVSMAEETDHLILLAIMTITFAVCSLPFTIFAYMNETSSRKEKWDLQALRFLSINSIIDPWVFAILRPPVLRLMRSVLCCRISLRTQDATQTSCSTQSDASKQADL

COCCNC(=O)c1cc2cn(CC3CN(C(=O)c4ccc(C(F)(F)F)c(F)c4)C3)nc2cc1C [Example 184, 2-({1-[3-fluoro-4-(trifluoromethyl)benzoyl]azetidin-3-yl}methyl)-N-(2-methoxy-ethyl)-6-methyl-2H-indazol-5-carboxamide]
IC50 [1]: 0.0768 µM
Selectivity hEP2/hEP4 [2]: xxx (xxx > 100)
Selectivity hEP2/hDP (human PGD receptor): xxx (xxx > 100)

COc1cccc(-c2ccc(C(=O)N3CCC(Cn4cc5c(C)c(C(=O)NCC(F)(F)F)ccc5n4)CC3)cc2)n1 [Example 323, 2-({1-[4-(6-methoxypyridin-2-yl)benzoyl]piperidin-4-yl}methyl)-4-methyl-N-(2,2,2-trifluoroethyl)-2H-indazol-5-carboxamide]
IC50 [1]: 0.128 µM
Selectivity hEP2/hEP4 [2]: xxx (xxx > 100)
Selectivity hEP2/hDP (human PGD receptor): xxx (xxx > 100)

COCCNC(=O)c1ccc2nn(CC3CN(C(=O)c4ccc(Br)cc4)C3)cc2c1OC [Example 216, 2-{[1-(4-bromobenzoyl)azetidin-3-yl]methyl}-4-methoxy-N-(2-methoxyethyl)-2H-indazol-5-carboxamide]
IC50 [1]: 0.0861 µM
Selectivity hEP2/hEP4 [2]: xxx (xxx > 100)
Selectivity hEP2/hDP (human PGD receptor): xxx (xxx > 100)

COCCNC(=O)c1ccc2nn(CC3CCN(C(=O)c4ccc(-c5cccc(C(F)(F)F)n5)cc4)CC3)cc2c1C [Example 369, N-(2-methoxyethyl)-4-methyl-2-[(1-{4-[6-(trifluoromethyl)pyridin-2-yl]-benzoyl}piperidin-4-yl)methyl]-2H-indazol-5-carboxamide]
IC50 [1]: 0.00566 µM
Selectivity hEP2/hEP4 [2]: xxx (xxx > 100)
Selectivity hEP2/hDP (human PGD receptor): xxx (xxx > 100)

Cc1cc2nn(CC3CN(C(=O)c4ccc(Cl)cc4)C3)cc2cc1C(=O)NCCOCC1CC1 [Example 198, 2-{[1-(4-chlorobenzoyl)azetidin-3-yl]methyl}-N-[2-(cyclopropylmethoxy)ethyl]-6-methyl-2H-indazol-5-carboxamide]
IC50 [1]: 0.153 µM
Selectivity hEP2/hEP4 [2]: xxx (xxx > 100)
Selectivity hEP2/hDP (human PGD receptor): xxx (xxx > 100)

COc1ccc2cc(C(=O)N3CC(Cn4cc5c(C)c(C(=O)NCC(F)(F)F)ccc5n4)C3)n(C)c2c1 [Example 169, 2-({1-[(6-methoxy-1-methyl-1H-indol-2-yl)carbonyl]azetidin-3-yl}methyl)-4-methyl-N-(2,2,2-trifluoroethyl)-2H-indazol-5-carboxamide]
IC50 [1]: 0.0277 µM
Selectivity hEP2/hEP4 [2]: xxx (xxx > 100)
Selectivity hEP2/hDP (human PGD receptor): xxx (xxx > 100)

Cc1c(C(=O)NCC(F)(F)F)ccc2nn(CC3CCN(C(=O)c4cc5cc(Cl)ccc5n4C)CC3)cc12 [Example 294, 2-({1-[(5-chloro-1-methyl-1H-indol-2-yl)carbonyl]piperidin-4-yl}methyl)-4-methyl-N-(2,2,2-trifluoroethyl)-2H-indazol-5-carboxamide]
IC50 [1]: 0.0132 µM
Selectivity hEP2/hEP4 [2]: xxx (xxx > 100)
Selectivity hEP2/hDP (human PGD receptor): xxx (xxx > 100)

Cc1c(C(=O)NCCN2CCC(F)(F)C2)ccc2nn(CC3CCN(C(=O)c4ccc(S(F)(F)(F)(F)F)cc4)CC3)cc12 [Example 68, N-[2-(3,3-difluoropyrrolidin-1-yl)ethyl]-4-methyl-2-({1-[4-(pentafluoro-λ^6-sulphanyl)benzoyl]piperidin-4-yl}methyl)-2H-indazol-5-carboxamide]
IC50 [1]: 0.0177 µM
Selectivity hEP2/hEP4 [2]: xxx (xxx > 100)
Selectivity hEP2/hDP (human PGD receptor): xxx (xxx > 100)

Cc1cc2nn(CC3CCN(C(=O)c4cccc(C(F)(F)F)c4)CC3)cc2cc1C(=O)NCCN1CCOCC1 [Example 82, 6-methyl-N-(2-morph-olinoethyl)-2-({1-[3-(trifluoromethyl)-benzoyl]piperidin-4-yl}methyl)-2H-indazol-5-carboxamide]
IC50 [1]: 0.218 µM
Selectivity hEP2/hEP4 [2]: xx (xx: 10-100)
Selectivity hEP2/hDP (human PGD receptor): xx (xx: 10-100)

Cc1cc2nn(CC3CN(C(=O)c4ccc(Cl)cc4)C3)cc2cc1C(=O)NCCN1CCOCC1 [Example 278, 2-{[1-(4-chlorobenzoyl)azetidin-3-yl]methyl}-6-methyl-N-(2-morpholinoethyl)-2H-indazol-5-carboxamide]
IC50 [1]: 0.104 µM
Selectivity hEP2/hEP4 [2]: xxx (xxx > 100)
Selectivity hEP2/hDP (human PGD receptor): xxx (xxx > 100)

COCCNC(=O)c1cc2cn(CC3CCN(C(=O)c4cn(C)c5ccccc45)CC3)nc2cc1C [Example 281, N-(2-methoxyethyl)-6-methyl-2-({1-[(1-methyl-1H-indol-3-yl)carbonyl]-piperidin-4-yl}methyl)-2H-indazol-5-carboxamide]
IC50 [1]: 0.023 µM
Selectivity hEP2/hEP4 [2]: xxx (xxx > 100)
Selectivity hEP2/hDP (human PGD receptor): xxx (xxx > 100)

COCCNC(=O)c1ccc2nn(CC3CCN(C(=O)c4ccc(-c5ccc(OC)cc5F)cc4F)CC3)cc2c1C [Example 364, 2-({1-[(2′,3-difluoro-4′-methoxybiphenyl-4-yl)carbonyl]piperidin-4-yl}methyl)-N-(2-methoxyethyl)-4-methyl-2H-indazol-5-carboxamide]
IC50 [1]: 0.00661 µM
Selectivity hEP2/hEP4 [2]: xxx (xxx > 100)
Selectivity hEP2/hDP (human PGD receptor): xxx (xxx > 100)

COCCNC(=O)c1ccc2nn(CC3CCN(C(=O)c4ccc(-c5cncc(Cl)c5)cc4)CC3)cc2c1C [Example 385, 2-({1-[4-(5-chloropyridin-3-yl)benzoyl]piperidin-4-yl}methyl)-N-(2-methoxy-ethyl)-4-methyl-2H-indazol-5-carboxamide]
IC50 [1]: 0.0131 µM
Selectivity hEP2/hEP4 [2]: xxx (xxx > 100)
Selectivity hEP2/hDP (human PGD receptor): xxx (xxx > 100)

COCCNC(=O)c1ccc2nn(CC3CCN(C(=O)c4ccc(Oc5ccc(F)cc5)cc4)CC3)cc2c1OCC(F)(F)F [Example 233, 2-({1-[4-(4-fluorophenoxy)benzoyl]piperidin-4-yl}methyl)-N-(2-methoxyethyl)-4-(2,2,2-trifluoroethoxy)-2H-indazol-5-carboxamide]
IC50 [1]: 0.0397 µM
Selectivity hEP2/hEP4 [2]: xxx (xxx > 100)
Selectivity hEP2/hDP (human PGD receptor): xxx (xxx > 100)

Cc1c(C(=O)NCC(F)(F)F)ccc2nn(CC3CN(C(=O)c4ccc(Oc5ccc(Cl)cc5)cc4)C3)cc12 [Example 165, 2-({1-[4-(4-chlorophenoxy)benzoyl]azetidin-3-yl}methyl)-4-methyl-N-(2,2,2-trifluoroethyl)-2H-indazol-5-carboxamide]
IC50 [1]: 0.0334 µM
Selectivity hEP2/hEP4 [2]: xxx (xxx > 100)
Selectivity hEP2/hDP (human PGD receptor): xxx (xxx > 100)

Cc1c(C(=O)NCC(F)(F)F)ccc2nn(CC3CCN(C(=O)c4ccc(Oc5ccc(F)cc5F)cc4)CC3)cc12 [Example 313, 2-({1-[4-(2,4-difluorophenoxy)benzoyl]piperidin-4-yl}methyl)-4-methyl-N-(2,2,2-trifluoroethyl)-2H-indazol-5-carboxamide]
IC50 [1]: 0.0894 µM
Selectivity hEP2/hEP4 [2]: xxx (xxx > 100)
Selectivity hEP2/hDP (human PGD receptor): xxx (xxx > 100)

COCCNC(=O)c1ccc2nn(C[C@H]3CCN(C(=O)c4ccc(Oc5ccc(C(F)(F)F)cc5)cc4)C3)cc2c1C [Example 224, N-(2-methoxyethyl)-4-methyl-2-{[(S)-1-{4-[4-(trifluoromethyl)phenoxy]benzoyl}pyrrolidin-3-yl]methyl}-2H-indazol-5-carboxamide]
IC50 [1]: 0.00562 µM
Selectivity hEP2/hEP4 [2]: xxx (xxx > 100)
Selectivity hEP2/hDP (human PGD receptor): xxx (xxx > 100)

COCCNC(=O)c1ccc2nn(CC3CCN(C(=O)c4cnc(-c5ccccc5)o4)CC3)cc2c1C [Example 339, N-(2-methoxyethyl)-4-methyl-2-({1-[(2-phenyloxazol-5-yl)carbonyl]piperidin-4-yl}methyl)-2H-indazol-5-carboxamide]
IC50 [1]: 0.00715 µM
Selectivity hEP2/hEP4 [2]: xxx (xxx > 100)
Selectivity hEP2/hDP (human PGD receptor): xxx (xxx > 100)

Cc1c(C(=O)NCC2CCCCO2)ccc2nn(CC3CN(C(=O)c4ccc(Cl)cc4)C3)cc12 (single isomer, unassigned) [Example 145, (R or S)-2-{[1-(4-chlorobenzoyl)azetidin-3-yl]methyl}-4-methyl-N-(3,4,5,6-tetrahydro-2H-pyran-2-ylmethyl)-2H-indazol-5-carboxamide]
IC50 [1]: 0.0188 µM
Selectivity hEP2/hEP4 [2]: xxx (xxx > 100)
Selectivity hEP2/hDP (human PGD receptor): xxx (xxx > 100)

COCCNC(=O)c1ccc2nn(CC3CCN(C(=O)c4ccc(-c5cnco5)cc4)CC3)cc2c1C [Example 36, N-(2-methoxyethyl)-4-methyl-2-({1-[4-(oxazol-5-yl)-benzoyl]piperidin-4-yl}methyl)-2H-indazol-5-carboxamide]
IC50 [1]: 0.0616 µM
Selectivity hEP2/hEP4 [2]: xxx (xxx > 100)
Selectivity hEP2/hDP (human PGD receptor): xxx (xxx > 100)
